Assay results as given in US9126997B1, “Synergistic effect of glucocorticoid receptor agonists in combination with proteosome inhibitors for treating leukemia and myeloma” (Northwestern University, priority 2010, dated 2015).

What was measured:
[1] = tested on: glucocorticoid receptor (GR); assay: Function (transactivation / transrepression) of GR accumulated after cell pre-treatment with BZ in the presence of GR ligands; assay type: cell-based
Description: (§1) Further, GR protein expression can be increased both in the absence and in the presence of […] such as glucocorticoids and SEGRA. Importantly, in the presence of GR ligands, cell pre-treatment with BZ results in the accumulation of GR whose function is defined by the ligand. […] Thus, SEGRA+BZ administered in combination will maximize the anti-inflammatory and anti-proliferative effects of SEGRA therapy that are based on GR transrepression, and at the same time will not induce metabolic side effects typical for glucocorticoids that are based on GR transactivation.

[2] = tested on: glucocorticoid receptor (GR); assay: GR protein levels in cells after treatment with proteasome inhibitor; assay type: cell-based, human
Description: as §1

Question: What does the source list for `CC(C)C[C@H](NC(=O)[C@H](Cc1ccccc1)NC(=O)c1cnccn1)B(O)O` [Bortezomib]?
Answer: GR accumulation and function ([1]; in the presence of SEGRA): accumulation of GR whose activity is shifted towards transrepression; GR accumulation and function ([1]; in the presence of glucocorticoids): accumulation of GR that is proficient in both transactivation and transrepression; endogenous GR protein levels ([2]; human epithelial and lymphoid cell lines and primary cell cultures): strongly increases endogenous GR protein levels; GR expression in GR-negative cells ([2]; some glucocorticoid-resistant GR-negative cells): re-expression of GR
